Patent US7332608B2, “Anthranilamides and methods of their use” (SANOFI-AVENTIS Deutschland GmbH, priority 2001, dated 2008)

Target: T1, Human Kv1.5 channels (Homo sapiens, UniProt P22460)
T1 construct: expressed in transfected cells; host or cells: Xenopus laevis oocytes injected with in vitro synthesized Kv1.5-encoding RNA
Experiment: Kv1.5 currents in Xenopus oocytes, two-microelectrode voltage clamp
Format: cell-based
Conditions: human Kv1.5 expressed in Xenopus laevis oocytes; voltage jumps 500 ms to 0 mV and 40 mV; room temperature; Hill equation
Protocol: Human Kv1.5 channels were expressed in Xenopus oocytes. For this purpose, firstly ooytes were isolated from Xenopus laevis and were defolliculated. Kv1.5-encoding RNA which had been synthesized in vitro was then injected into these oocytes. After 1-7 days of Kv1.5 protein expression, the Kv1.5 currents were measured on the oocytes by the two-microelectrode voltage clamp technique. The Kv1.5 channels were for this purpose usually activated with voltage jumps lasting 500 ms to 0 mV and 40 mV. A solution of the following composition flowed through the bath: NaCl 96 mM, KCl 2 mM, CaCl2 1.8 mM, MgCl2 1 mM, HEPES 5 mM (titrated to pH 7.4 with NaOH). These experiments were carried out at room temperature. The following were employed for data acquisition and analysis: geneclamp amplifier (Axon Instruments, Foster City, USA) and MacLab D/A converter and software (ADInstruments, Castle Hill, Australia). The compounds of the invention were tested by adding them in various concentrations to the bath solution. The effects of the compounds were calculated as percentage inhibition of the Kv1.5 control current which was obtained when no compound was added to the solution. The data were then extrapolated using the Hill equation in order to determine the inhibitory concentrations IC50 for the respective compounds.

T1 sequence (P22460 whole entry): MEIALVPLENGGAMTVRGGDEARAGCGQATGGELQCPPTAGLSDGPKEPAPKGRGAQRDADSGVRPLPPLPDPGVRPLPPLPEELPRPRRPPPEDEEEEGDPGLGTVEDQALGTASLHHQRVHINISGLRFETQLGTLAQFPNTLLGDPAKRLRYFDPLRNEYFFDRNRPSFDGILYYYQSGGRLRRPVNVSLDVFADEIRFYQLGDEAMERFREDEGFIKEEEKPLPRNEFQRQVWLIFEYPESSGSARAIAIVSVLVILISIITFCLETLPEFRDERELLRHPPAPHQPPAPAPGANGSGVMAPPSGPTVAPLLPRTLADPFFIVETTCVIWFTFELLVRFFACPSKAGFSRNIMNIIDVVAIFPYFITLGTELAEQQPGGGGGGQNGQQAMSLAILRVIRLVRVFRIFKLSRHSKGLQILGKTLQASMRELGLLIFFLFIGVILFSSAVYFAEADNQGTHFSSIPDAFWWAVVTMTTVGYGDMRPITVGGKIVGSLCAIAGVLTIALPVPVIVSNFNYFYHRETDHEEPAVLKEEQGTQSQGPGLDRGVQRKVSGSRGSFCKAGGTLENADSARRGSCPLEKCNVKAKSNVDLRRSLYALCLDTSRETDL

Structure (SMILES): Cc1ccc(S(=O)(=O)Nc2ccccc2C(=O)N(Cc2ccc(F)cc2)Cc2cccc(C)n2)cc1 [Example 117]
- IC50: 2400 nM

Structure (SMILES): Cc1ccc(S(=O)(=O)Nc2ccccc2C(=O)N(Cc2cccnc2)Cc2cccc(C)n2)cc1 [Example 118]
- IC50: 2200 nM

Structure (SMILES): Cc1ccc(S(=O)(=O)Nc2ccccc2C(=O)N(Cc2nccs2)CC2CCCCC2)cc1 [Example 119]
- IC50: 2700 nM

Structure (SMILES): Cc1ccc(S(=O)(=O)Nc2ccccc2C(=O)N(Cc2cccc(C)n2)CC2CCCO2)cc1 (stereo not shown) [Example 120]
- IC50: 1400 nM

Structure (SMILES): Cc1ccc(S(=O)(=O)Nc2ccccc2C(=O)N(Cc2cccc(C)n2)Cc2ccco2)cc1 [Example 121]
- IC50: 600 nM

Structure (SMILES): Cc1ccc(S(=O)(=O)Nc2ccccc2C(=O)N(Cc2ccco2)Cc2nccn2C)cc1 [Example 122]
- IC50: 1200 nM

Structure (SMILES): CCCCS(=O)(=O)Nc1ccccc1C(=O)N(Cc1cccnc1)Cc1cccc(C)n1 [Example 123]
- IC50: 2900 nM

Structure (SMILES): COc1ccc(NS(=O)(=O)c2ccc(C)cc2)c(C(=O)NC(c2ccccn2)C2CC2)c1 (stereo not shown) [Example 124]
- IC50: 1000 nM

Structure (SMILES): CCCCS(=O)(=O)Nc1ccc(C)cc1C(=O)NC(c1ccccn1)C1CC1 (stereo not shown) [Example 125]
- IC50: 1800 nM

Structure (SMILES): Cc1ccc(S(=O)(=O)Nc2ccc(C)cc2C(=O)NC(c2ccccn2)C2CC2)cc1 (stereo not shown) [Example 126]
- IC50: 600 nM

Structure (SMILES): CCCCS(=O)(=O)Nc1ccc(C)cc1C(=O)NC(c1cccc(OC)n1)C1CC1 (stereo not shown) [Example 127]
- IC50: 3300 nM

Structure (SMILES): C#CC(NC(=O)c1cc(C)ccc1NS(=O)(=O)CCCC)c1ccccc1 (stereo not shown) [Example 128]
- IC50: 2200 nM

Structure (SMILES): CCCCS(=O)(=O)Nc1ccc(C)cc1C(=O)NC(c1ccc(OC)nc1)C1CC1 (stereo not shown) [Example 129]
- IC50: 1300 nM

Structure (SMILES): CCC(c1ccccc1)N(C)C(=O)c1ccccc1NS(=O)(=O)c1ccccc1 (stereo not shown) [Example 130]
- IC50: 700 nM

Structure (SMILES): COc1ccc(NS(=O)(=O)c2ccc(C)cc2)c(C(=O)NC(c2cccnc2)C2CC2)c1 (stereo not shown) [Example 131]
- IC50: 700 nM

Structure (SMILES): COc1ccc(NS(=O)(=O)c2ccc(C)cc2)c(C(=O)NC(C)Cc2ccccn2)c1 (stereo not shown) [Example 133]
- IC50: 1400 nM

Structure (SMILES): COc1ccc(S(=O)(=O)Nc2ccc(OC)cc2C(=O)NC(c2cccnc2)C2CC2)cc1 (stereo not shown) [Example 134]
- IC50: 900 nM

Structure (SMILES): CCC(NC(=O)c1cc(OC)ccc1NS(=O)(=O)c1ccc(C)cc1)c1ccc(C)o1 (stereo not shown) [Example 135]
- IC50: 1200 nM

Structure (SMILES): CCCCS(=O)(=O)Nc1ccc(C)cc1C(=O)NC(CC)c1ccc(C)o1 (stereo not shown) [Example 136]
- IC50: 900 nM

Structure (SMILES): CCCCS(=O)(=O)Nc1ccc(C)cc1C(=O)NC(CC)Cc1cccnc1 (stereo not shown) [Example 138]
- IC50: 1800 nM

Structure (SMILES): CCC(NC(=O)c1cc(OC)ccc1NS(=O)(=O)c1ccc(C)cc1)c1ccc(OC)nc1 (stereo not shown) [Example 139]
- IC50: 1000 nM

Structure (SMILES): CCC(Cc1c[nH]c2ccccc12)NC(=O)c1cc(OC)ccc1NS(=O)(=O)c1ccc(C)cc1 (stereo not shown) [Example 140]
- IC50: 1400 nM

Structure (SMILES): CCC(NC(=O)c1cc(OC)ccc1NS(=O)(=O)c1ccc(C)cc1)c1ccc(C)nc1 (stereo not shown) [Example 141]
- IC50: 1100 nM

Structure (SMILES): CCC(Cc1ccccn1)NC(=O)c1cc(OC)ccc1NS(=O)(=O)c1ccc(C)cc1 (stereo not shown) [Example 142]
- IC50: 700 nM

Structure (SMILES): COc1ccc(NS(=O)(=O)c2ccc(C)cc2)c(C(=O)N[C@H]2CC[C@H](C)CC2)c1 [Example 143]
- IC50: 3600 nM

Structure (SMILES): CCCCS(=O)(=O)Nc1ccc(C)cc1C(=O)NC(CC)c1cccnc1 (stereo not shown) [Example 144]
- IC50: 2800 nM

Structure (SMILES): CCC(NC(=O)c1ccccc1NS(=O)(=O)c1ccc(C)cc1)c1ccco1 (stereo not shown) [Example 145]
- IC50: 2600 nM

Structure (SMILES): CCC(NC(=O)c1cc(C)ccc1NS(=O)(=O)C1CC1)c1ccc(C)o1 (stereo not shown) [Example 146]
- IC50: 2500 nM

Structure (SMILES): CC[C@H](NC(=O)c1cc(OC)ccc1NS(=O)(=O)CC)c1ccccc1 [Example 147]
- IC50: 3800 nM

Structure (SMILES): CCCS(=O)(=O)Nc1ccc(OC)cc1C(=O)N[C@@H](CC)c1ccccc1 [Example 148]
- IC50: 2100 nM

Structure (SMILES): CC[C@H](NC(=O)c1cc(OC)ccc1NS(=O)(=O)C(C)C)c1ccccc1 [Example 149]
- IC50: 2200 nM

Structure (SMILES): CC[C@H](NC(=O)c1cc(OC)ccc1NS(=O)(=O)c1ccc(OC)cc1)c1ccccc1 [Example 150]
- IC50: 300 nM

Structure (SMILES): CC[C@H](NC(=O)c1ccccc1NS(=O)(=O)c1ccc(OC)c(OC)c1)c1ccccc1 [Example 151]
- IC50: 1500 nM

Structure (SMILES): CC[C@H](NC(=O)c1cc(O)ccc1NS(=O)(=O)c1ccc(C)cc1)c1ccccc1 [Example 152, 5-Hydroxy-N-(1-phenylpropyl)-2-(toluene-4-sulfonylamino)benzamide]
- IC50: 2600 nM
